{"source": "ChEMBL document CHEMBL5625183", "about": "“Discovery of a novel dual-target inhibitor of CDK12 and PARP1 that induces synthetic lethality for treatment of triple-negative breast cancer” (Eur J Med Chem, 2023)", "key": {"MDA-MB-436 [1]": {"tested_on": "MDA-MB-436", "assay": "Antiproliferative activity against human MDA-MB-436 cells transfected with wild type CDK12 and PARP1 G863A mutant incubated for 24 hrs by MTT assay", "assay_type": "functional, cell-based"}, "MDA-MB-231 [2]": {"tested_on": "MDA-MB-231", "assay": "Induction of cell cycle arrest in human MDA-MB-231 cells assessed as accumulation of cells at S phase at 5 uM measured after 24 hrs by PI staining based cytometry analysis (reference value: 23.01 %)", "assay_type": "functional"}, "[3]": {"target": "T1, Cyclin-dependent kinase 12 (Homo sapiens, UniProt Q9NYV4)", "T1 sequence (Q9NYV4 whole entry, looked up)": "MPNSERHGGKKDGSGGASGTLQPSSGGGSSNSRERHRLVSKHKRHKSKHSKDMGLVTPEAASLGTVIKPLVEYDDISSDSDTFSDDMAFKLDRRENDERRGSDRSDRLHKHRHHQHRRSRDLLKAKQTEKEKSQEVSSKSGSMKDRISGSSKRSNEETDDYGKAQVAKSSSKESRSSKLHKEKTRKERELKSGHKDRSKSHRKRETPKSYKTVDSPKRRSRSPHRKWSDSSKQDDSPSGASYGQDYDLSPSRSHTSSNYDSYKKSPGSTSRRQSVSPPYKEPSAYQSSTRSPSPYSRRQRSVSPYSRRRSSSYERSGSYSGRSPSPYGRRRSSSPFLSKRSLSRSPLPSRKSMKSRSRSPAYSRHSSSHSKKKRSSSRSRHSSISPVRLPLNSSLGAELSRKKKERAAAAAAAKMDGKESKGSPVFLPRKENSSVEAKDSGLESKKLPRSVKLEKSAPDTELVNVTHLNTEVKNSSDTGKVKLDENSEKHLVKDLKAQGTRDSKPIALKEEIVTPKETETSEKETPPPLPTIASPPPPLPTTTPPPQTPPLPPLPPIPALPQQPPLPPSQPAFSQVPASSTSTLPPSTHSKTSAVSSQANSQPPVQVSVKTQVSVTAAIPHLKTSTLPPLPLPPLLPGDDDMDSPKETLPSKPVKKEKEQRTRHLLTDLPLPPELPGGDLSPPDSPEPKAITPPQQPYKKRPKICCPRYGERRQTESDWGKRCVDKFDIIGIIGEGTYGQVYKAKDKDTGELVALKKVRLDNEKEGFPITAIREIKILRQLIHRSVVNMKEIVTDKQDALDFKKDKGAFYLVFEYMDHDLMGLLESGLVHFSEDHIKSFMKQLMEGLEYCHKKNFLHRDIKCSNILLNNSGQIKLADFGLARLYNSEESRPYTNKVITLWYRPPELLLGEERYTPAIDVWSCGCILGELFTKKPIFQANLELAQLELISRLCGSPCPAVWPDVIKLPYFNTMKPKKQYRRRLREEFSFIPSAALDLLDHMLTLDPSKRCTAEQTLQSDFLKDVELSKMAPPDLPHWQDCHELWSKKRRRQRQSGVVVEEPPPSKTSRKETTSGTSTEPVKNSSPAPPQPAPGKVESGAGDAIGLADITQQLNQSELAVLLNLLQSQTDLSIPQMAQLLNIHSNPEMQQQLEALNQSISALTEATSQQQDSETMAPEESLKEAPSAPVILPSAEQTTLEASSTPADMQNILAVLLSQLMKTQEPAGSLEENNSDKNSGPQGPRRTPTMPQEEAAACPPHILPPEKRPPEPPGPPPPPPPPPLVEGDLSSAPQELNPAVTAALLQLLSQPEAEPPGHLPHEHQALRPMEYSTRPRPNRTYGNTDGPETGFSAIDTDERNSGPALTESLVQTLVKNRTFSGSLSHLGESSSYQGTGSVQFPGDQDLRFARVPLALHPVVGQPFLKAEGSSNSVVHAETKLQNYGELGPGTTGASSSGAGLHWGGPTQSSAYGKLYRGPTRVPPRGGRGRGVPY", "assay": "Inhibition of CDK12 in human MDA-MB-231 cells assessed as effect on Pol II CTD at ser7 residue phosphorylation incubated for 24 hrs", "assay_type": "cell-based", "details": "dose 5-20 µM"}, "MDA-MB-468 [4]": {"tested_on": "MDA-MB-468", "assay": "[…] DNA repair in human MDA-MB-468 cells assessed as […] formation at 10 uM incubated for 24 hrs by confocal laser scanning microscopic analysis", "assay_type": "functional, cell-based"}, "[5]": {"target": "Transcription initiation factor TFIID subunit 1-like (Homo sapiens) (UniProt Q8IZX4)", "sequence (Q8IZX4 whole entry)": "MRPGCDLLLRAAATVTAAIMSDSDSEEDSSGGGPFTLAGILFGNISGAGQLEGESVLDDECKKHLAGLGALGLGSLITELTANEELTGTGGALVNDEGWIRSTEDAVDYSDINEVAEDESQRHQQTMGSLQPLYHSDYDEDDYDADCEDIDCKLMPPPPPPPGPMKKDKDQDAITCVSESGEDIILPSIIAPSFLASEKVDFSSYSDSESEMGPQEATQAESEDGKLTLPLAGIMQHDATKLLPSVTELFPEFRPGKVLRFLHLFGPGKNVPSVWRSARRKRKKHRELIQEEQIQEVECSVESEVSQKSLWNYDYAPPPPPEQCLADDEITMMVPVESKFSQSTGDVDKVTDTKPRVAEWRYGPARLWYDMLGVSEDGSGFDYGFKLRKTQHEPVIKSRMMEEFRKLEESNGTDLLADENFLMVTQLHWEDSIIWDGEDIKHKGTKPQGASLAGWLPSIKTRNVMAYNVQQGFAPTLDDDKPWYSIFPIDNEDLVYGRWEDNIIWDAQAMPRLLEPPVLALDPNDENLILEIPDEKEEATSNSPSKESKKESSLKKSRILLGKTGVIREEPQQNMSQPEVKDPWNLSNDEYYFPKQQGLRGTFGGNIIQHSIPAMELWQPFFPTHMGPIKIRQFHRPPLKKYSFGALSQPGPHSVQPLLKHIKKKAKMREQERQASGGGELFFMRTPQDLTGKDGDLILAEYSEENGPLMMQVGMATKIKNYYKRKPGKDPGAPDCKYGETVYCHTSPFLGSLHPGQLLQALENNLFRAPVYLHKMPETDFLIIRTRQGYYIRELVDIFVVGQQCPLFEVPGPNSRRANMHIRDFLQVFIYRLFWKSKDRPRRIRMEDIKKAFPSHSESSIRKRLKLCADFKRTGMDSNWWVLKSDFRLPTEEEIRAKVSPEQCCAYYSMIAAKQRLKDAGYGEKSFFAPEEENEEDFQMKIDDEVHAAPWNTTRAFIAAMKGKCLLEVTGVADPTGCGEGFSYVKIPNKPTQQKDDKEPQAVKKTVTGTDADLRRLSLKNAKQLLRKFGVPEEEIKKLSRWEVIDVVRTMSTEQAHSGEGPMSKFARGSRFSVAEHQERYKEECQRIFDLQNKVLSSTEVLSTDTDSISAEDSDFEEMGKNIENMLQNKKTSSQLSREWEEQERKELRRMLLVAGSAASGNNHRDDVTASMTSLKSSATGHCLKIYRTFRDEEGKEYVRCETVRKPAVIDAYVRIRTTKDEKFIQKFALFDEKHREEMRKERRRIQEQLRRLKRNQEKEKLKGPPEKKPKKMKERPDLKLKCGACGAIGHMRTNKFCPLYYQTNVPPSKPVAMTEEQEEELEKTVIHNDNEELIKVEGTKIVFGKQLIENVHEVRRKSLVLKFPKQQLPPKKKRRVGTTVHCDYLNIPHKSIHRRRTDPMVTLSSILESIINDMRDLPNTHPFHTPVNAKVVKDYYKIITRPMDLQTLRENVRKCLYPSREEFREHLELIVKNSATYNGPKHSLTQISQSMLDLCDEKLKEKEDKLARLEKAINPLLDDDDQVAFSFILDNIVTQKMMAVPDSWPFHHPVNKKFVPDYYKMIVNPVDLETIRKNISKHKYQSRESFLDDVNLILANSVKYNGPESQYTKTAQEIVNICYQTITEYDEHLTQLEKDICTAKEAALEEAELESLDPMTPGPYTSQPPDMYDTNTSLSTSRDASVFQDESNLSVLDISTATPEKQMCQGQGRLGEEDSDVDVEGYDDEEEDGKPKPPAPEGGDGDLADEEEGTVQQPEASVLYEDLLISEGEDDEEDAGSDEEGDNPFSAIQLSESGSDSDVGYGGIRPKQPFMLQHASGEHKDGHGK", "assay": "Inhibition of TAF1L (unknown origin) at 1 uM relative to control"}, "[6]": {"assay": "Cmax in Sprague-Dawley rat at 1 mg/kg, iv measured upto 24 hrs by LC-MS/MS analysis", "assay_type": "ADME, organism-based", "details": "in vivo"}, "[7]": {"target": "MAP kinase-activated protein kinase 2 (Homo sapiens) (UniProt P49137)", "sequence (P49137 whole entry, looked up)": "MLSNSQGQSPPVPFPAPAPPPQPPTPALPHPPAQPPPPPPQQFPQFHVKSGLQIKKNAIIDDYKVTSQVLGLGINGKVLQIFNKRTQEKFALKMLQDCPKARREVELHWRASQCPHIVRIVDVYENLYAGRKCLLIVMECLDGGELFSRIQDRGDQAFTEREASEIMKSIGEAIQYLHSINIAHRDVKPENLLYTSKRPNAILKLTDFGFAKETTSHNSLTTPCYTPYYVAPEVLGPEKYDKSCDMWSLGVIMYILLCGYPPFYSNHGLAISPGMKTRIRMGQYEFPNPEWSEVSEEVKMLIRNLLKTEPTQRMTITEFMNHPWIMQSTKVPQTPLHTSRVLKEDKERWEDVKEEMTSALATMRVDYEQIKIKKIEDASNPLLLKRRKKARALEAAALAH", "assay": "Inhibition of MAPK2 (unknown origin) at 1 uM relative to control"}, "MDA-MB-231 [8]": {"tested_on": "MDA-MB-231", "assay": "Induction of apoptosis in human MDA-MB-231 cells assessed as increase in […] at 10 uM incubated for 24 hrs by Annexin V/PI staining based flow cytometry analysis", "assay_type": "functional, cell-based"}, "MDA-MB-468 [9]": {"tested_on": "MDA-MB-468", "assay": "Induction of apoptosis in human MDA-MB-468 cells assessed as downregulation of Bcl-2 expression incubated for 24 hrs", "assay_type": "functional, cell-based", "details": "dose 5-20 µM"}, "MDA-MB-468 [10]": {"tested_on": "MDA-MB-468", "assay": "[…] DNA repair in human MDA-MB-468 cells assessed as decrease in RAD51 level at 10 uM incubated for 24 hrs by confocal laser scanning microscopic analysis", "assay_type": "functional, cell-based"}, "MDA-MB-231 [11]": {"tested_on": "MDA-MB-231", "assay": "Induction of apoptosis in human MDA-MB-231 cells assessed as upregulation of cleaved-caspase 3 expression incubated for 24 hrs", "assay_type": "functional, cell-based", "details": "dose 5-20 µM"}, "MDA-MB-231 [12]": {"tested_on": "MDA-MB-231", "assay": "Antitumor activity against human MDA-MB-231 cells xenografted in ip dosed BALB/c mouse assessed as reduction in tumor growth administered once daily for 16 days", "assay_type": "functional, organism-based", "details": "dose 20-80 mg/kg, time 16.0 day"}, "MDA-MB-468 [13]": {"tested_on": "MDA-MB-468", "assay": "Antiproliferative activity against human MDA-MB-468 cells assessed as inhibition of cell growth incubated for 24 hrs by MTT assay", "assay_type": "functional, cell-based", "details": "MDA-MB-468, 24 h"}, "MDA-MB-231 [14]": {"tested_on": "MDA-MB-231", "assay": "Antiproliferative activity against human MDA-MB-231 cells transfected with CDK12 M816A and PARP1 G863A mutant incubated for 24 hrs by MTT assay", "assay_type": "functional, cell-based"}, "[15]": {"target": "Cyclin-dependent kinase 5 (Homo sapiens, UniProt Q00535)", "sequence (Q00535 whole entry)": "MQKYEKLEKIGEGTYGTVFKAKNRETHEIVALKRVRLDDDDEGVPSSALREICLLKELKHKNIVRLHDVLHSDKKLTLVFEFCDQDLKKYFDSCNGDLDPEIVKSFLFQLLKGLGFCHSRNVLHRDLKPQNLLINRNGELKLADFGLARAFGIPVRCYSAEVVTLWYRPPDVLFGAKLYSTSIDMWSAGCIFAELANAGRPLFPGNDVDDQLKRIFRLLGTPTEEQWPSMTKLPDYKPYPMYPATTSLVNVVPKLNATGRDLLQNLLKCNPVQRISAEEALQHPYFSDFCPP", "assay": "Inhibition of CDK5 (unknown origin)"}, "Mus musculus [16]": {"tested_on": "Mus musculus", "assay": "In-vivo induction of DNA damage in ip dosed BALB/c mouse assessed as upregulation of gamma-H2AX level in tumor administered once daily for 16 days by Western blot analysis", "assay_type": "functional, organism-based", "details": "dose 20-80 mg/kg, time 16.0 day"}, "MDA-MB-468 [17]": {"tested_on": "MDA-MB-468", "assay": "Antiproliferative activity against human MDA-MB-468 cells assessed as reduction in EDU-positive cells at 10 uM […]-staining based analysis", "assay_type": "functional, cell-based"}, "[18]": {"target": "Dual specificity protein kinase CLK1 (Homo sapiens) (UniProt P49759)", "sequence (P49759 whole entry, looked up)": "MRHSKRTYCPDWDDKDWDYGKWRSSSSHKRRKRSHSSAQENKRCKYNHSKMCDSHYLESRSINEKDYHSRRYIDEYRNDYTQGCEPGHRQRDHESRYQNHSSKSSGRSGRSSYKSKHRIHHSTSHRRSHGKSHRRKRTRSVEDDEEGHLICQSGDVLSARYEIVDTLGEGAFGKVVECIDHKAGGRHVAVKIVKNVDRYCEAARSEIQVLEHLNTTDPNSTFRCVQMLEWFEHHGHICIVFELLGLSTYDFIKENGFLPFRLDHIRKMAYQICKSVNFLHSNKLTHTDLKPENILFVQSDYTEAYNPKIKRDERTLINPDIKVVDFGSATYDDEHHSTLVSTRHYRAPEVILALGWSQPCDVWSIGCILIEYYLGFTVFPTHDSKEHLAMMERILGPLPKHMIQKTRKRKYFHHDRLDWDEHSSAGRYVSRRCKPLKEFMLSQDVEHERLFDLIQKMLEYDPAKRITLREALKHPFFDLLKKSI", "assay": "Inhibition of CLK1 (unknown origin) at 1 uM relative to control"}, "[19]": {"assay": "AUC (0 to t) in Sprague-Dawley rat at 10 mg/kg, po measured upto 24 hrs by LC-MS/MS analysis", "assay_type": "ADME, organism-based", "details": "in vivo"}, "MDA-MB-468 [20]": {"tested_on": "MDA-MB-468", "assay": "Inhibition of cell migration in human MDA-MB-468 cells assessed as downregulation of MMP-2 level by measuring fluorescence intensity at 10 uM incubated for 24 hrs by confocal microscopic analysis", "assay_type": "functional, cell-based"}, "MDA-MB-436 [21]": {"tested_on": "MDA-MB-436", "assay": "Induction of cell cycle arrest in human MDA-MB-436 cells assessed as accumulation of cells at S phase at 20 uM measured after 24 hrs by PI staining based cytometry analysis (reference value: 25.43%)", "assay_type": "functional"}, "[22]": {"target": "T1, Cyclin-dependent kinase 12", "assay": "Binding affinity to CDK12 in human MDA-MB-231 cells assessed as increase in protein thermal stabilization at 10 uM incubated for 6 hrs by CETSA based Western blot analysis", "assay_type": "cell-based"}, "MDA-MB-436 [23]": {"tested_on": "MDA-MB-436", "assay": "Induction of cell cycle arrest in human MDA-MB-436 cells assessed as accumulation of cells at G1 phase at 5 uM measured after 24 hrs by PI staining based cytometry analysis (reference value: 72.04%)", "assay_type": "functional"}, "MDA-MB-231 [24]": {"tested_on": "MDA-MB-231", "assay": "Induction of apoptosis in human MDA-MB-231 cells incubated for 24 hrs by Annexin V/PI staining based flow cytometry analysis", "assay_type": "functional, cell-based", "details": "dose 5-20 µM"}, "[25]": {"assay": "Metabolic stability in BALB/c mouse liver microsome assessed as intrinsic clearance in presence of NADPH incubated upto 60 mins by LC-MS/MS analysis", "assay_type": "ADME", "details": "liver microsomes, read-out: CLH"}, "[26]": {"assay": "Tmax in Sprague-Dawley rat at 1 mg/kg, iv measured upto 24 hrs by LC-MS/MS analysis", "assay_type": "ADME, organism-based", "details": "in vivo"}, "[27]": {"assay": "AUC (0 to infinity) in Sprague-Dawley rat at 1 mg/kg, iv measured upto 24 hrs by LC-MS/MS analysis", "assay_type": "ADME, organism-based", "details": "in vivo"}, "MDA-MB-231 [28]": {"tested_on": "MDA-MB-231", "assay": "[…] DNA repair in human MDA-MB-231 cells assessed as […] formation at 10 uM incubated for 24 hrs by confocal laser scanning microscopic analysis", "assay_type": "functional, cell-based"}, "Mus musculus [29]": {"tested_on": "Mus musculus", "assay": "In-vivo inhibition of CDK12-PARP1 in BALB/c mouse assessed as downregulation of PAR expression in tumor at 20 to 80 mg/kg, ip administered once daily for 16 days by Western blot analysis", "assay_type": "functional, organism-based", "details": "dose 20-80 mg/kg, time 16.0 day"}, "MDA-MB-231 [30]": {"tested_on": "MDA-MB-231", "assay": "Antiproliferative activity against human MDA-MB-231 cells assessed as reduction in EDU-positive cells at 10 uM […]-staining based analysis", "assay_type": "functional, cell-based"}, "MDA-MB-231 [31]": {"tested_on": "MDA-MB-231", "assay": "Antiproliferative activity against human MDA-MB-231 cells assessed as inhibition of cell growth incubated for 24 hrs by MTT assay", "assay_type": "functional, cell-based", "details": "MDA-MB-231, 24 h"}, "MDA-MB-231 [32]": {"tested_on": "MDA-MB-231", "assay": "Induction of apoptosis in human MDA-MB-231 cells assessed as upregulation of Bax expression incubated for 24 hrs", "assay_type": "functional, cell-based", "details": "dose 5-20 µM"}, "MDA-MB-231 [33]": {"tested_on": "MDA-MB-231", "assay": "Antitumor activity against human MDA-MB-231 cells xenografted in ip dosed BALB/c mouse assessed as downregulation of MMP-2 level administered once daily for 16 days", "assay_type": "functional, organism-based", "details": "dose 20-80 mg/kg, time 16.0 day"}, "MDA-MB-468 [34]": {"tested_on": "MDA-MB-468", "assay": "Induction of apoptosis in human MDA-MB-468 cells assessed as upregulation of cleaved-caspase 3 expression incubated for 24 hrs", "assay_type": "functional, cell-based", "details": "dose 5-20 µM"}, "[35]": {"assay": "Tmax in Sprague-Dawley rat at 10 mg/kg, po measured upto 24 hrs by LC-MS/MS analysis", "assay_type": "ADME, organism-based", "details": "in vivo"}, "MDA-MB-231 [36]": {"tested_on": "MDA-MB-231", "assay": "Induction of cell cycle arrest in human MDA-MB-231 cells assessed as accumulation of cells at G1 phase at 5 uM measured after 24 hrs by PI staining based cytometry analysis (reference value: 68.55%)", "assay_type": "functional"}, "[37]": {"target": "Cyclin-dependent kinase 2 (Homo sapiens, UniProt P24941)", "assay": "Inhibition of CDK2 (unknown origin) at 1 uM relative to control"}}, "note": "Activity calls are given as the source filed them. No cut-off for these calls is given here.", "data": [{"smiles": "NC(=O)c1cccc2[nH]c(NC(=O)c3cccc(C(=O)N4CCC(Nc5ncc(I)cn5)CC4)c3)nc12", "values": [{"measurement": "Activity", "setting": "MDA-MB-436 [1]", "value": "Active"}, {"measurement": "Activity", "setting": "MDA-MB-231 [2]", "value": 19.81, "unit": "%"}, {"measurement": "inhibition", "setting": "[3]", "value": "Dose-Dependent Effect"}, {"measurement": "Activity", "setting": "MDA-MB-468 [4]", "value": "Active"}, {"measurement": "inhibition", "setting": "[5]", "value": "> 60", "unit": "%"}, {"measurement": "Cmax", "setting": "[6]", "value": 2.13, "unit": "µg/mL"}, {"measurement": "inhibition", "setting": "[7]", "value": "> 60", "unit": "%"}, {"measurement": "Activity", "setting": "MDA-MB-231 [8]", "value": "Active"}, {"measurement": "Activity", "setting": "MDA-MB-468 [9]", "value": "Dose-Dependent Effect"}, {"measurement": "Activity", "setting": "MDA-MB-468 [10]", "value": "Active"}, {"measurement": "Activity", "setting": "MDA-MB-231 [11]", "value": "Dose-Dependent Effect"}, {"measurement": "Activity", "setting": "MDA-MB-231 [12]", "value": "Dose-Dependent Effect"}, {"measurement": "IC50", "setting": "MDA-MB-468 [13]", "value": 9.7, "unit": "µM"}, {"measurement": "Activity", "setting": "MDA-MB-231 [14]", "value": "Active"}, {"measurement": "IC50", "setting": "[15]", "value": 0.747, "unit": "µM"}, {"measurement": "Activity", "setting": "Mus musculus [16]", "value": "Active"}, {"measurement": "Activity", "setting": "MDA-MB-468 [17]", "value": "Active"}, {"measurement": "inhibition", "setting": "[18]", "value": "> 60", "unit": "%"}, {"measurement": "AUC(0-t) at 24 h", "setting": "[19]", "value": 0.0606, "unit": "µg·h/mL"}, {"measurement": "inhibition", "setting": "MDA-MB-468 [20]", "value": "Active"}, {"measurement": "Activity", "setting": "MDA-MB-436 [21]", "value": 21.2, "unit": "%"}, {"measurement": "Activity", "setting": "[22]", "value": "Active"}, {"measurement": "Activity", "setting": "MDA-MB-436 [23]", "value": 69.11, "unit": "%"}, {"measurement": "Activity", "setting": "MDA-MB-231 [24]", "value": "Dose-Dependent Effect"}, {"measurement": "CLint scaled", "setting": "[25]", "value": 2.91, "unit": "L/h/kg"}, {"measurement": "Tmax", "setting": "[26]", "value": 4.8, "unit": "min"}, {"measurement": "AUC(0-inf)", "setting": "[27]", "value": 1.34, "unit": "µg·h/mL"}, {"measurement": "Activity", "setting": "MDA-MB-231 [28]", "value": "Active"}, {"measurement": "inhibition", "setting": "Mus musculus [29]", "value": "Active"}, {"measurement": "Activity", "setting": "MDA-MB-231 [30]", "value": "Active"}, {"measurement": "IC50", "setting": "MDA-MB-231 [31]", "value": 8.5, "unit": "µM"}, {"measurement": "Activity", "setting": "MDA-MB-231 [32]", "value": "Dose-Dependent Effect"}, {"measurement": "Activity", "setting": "MDA-MB-231 [33]", "value": "Active"}, {"measurement": "Activity", "setting": "MDA-MB-468 [34]", "value": "Dose-Dependent Effect"}, {"measurement": "Tmax", "setting": "[35]", "value": 94.8, "unit": "min"}, {"measurement": "Activity", "setting": "MDA-MB-231 [36]", "value": 63.3, "unit": "%"}, {"measurement": "inhibition", "setting": "[37]", "value": "> 60", "unit": "%"}]}]}
